Measured values: article PMC11840788, “3,3′-Diindolylmethane (DIM): A Molecular Scaffold for Inhibition of WWP1 and WWP2, Members of the NEDD4 Family HECT E3 Ligases” (ACS Omega, 2025)
pKd: −log10 of the molar value.

Tests used:
[1] = molecular target: WWP1 HECT domain; design: method as in PMID 31097636; details: microscale thermophoresis, read-out: KD (dissociation constant) WWP1; cited from earlier work
[2] = molecular target: T1, WWP2 (Homo sapiens, UniProt O00308); test: STD NMR binding, WWP2; details: 500 μM ligand, 20 μM protein
T1 construct: made in house; host or cells: E. coli
T1 sequence (O00308 whole entry): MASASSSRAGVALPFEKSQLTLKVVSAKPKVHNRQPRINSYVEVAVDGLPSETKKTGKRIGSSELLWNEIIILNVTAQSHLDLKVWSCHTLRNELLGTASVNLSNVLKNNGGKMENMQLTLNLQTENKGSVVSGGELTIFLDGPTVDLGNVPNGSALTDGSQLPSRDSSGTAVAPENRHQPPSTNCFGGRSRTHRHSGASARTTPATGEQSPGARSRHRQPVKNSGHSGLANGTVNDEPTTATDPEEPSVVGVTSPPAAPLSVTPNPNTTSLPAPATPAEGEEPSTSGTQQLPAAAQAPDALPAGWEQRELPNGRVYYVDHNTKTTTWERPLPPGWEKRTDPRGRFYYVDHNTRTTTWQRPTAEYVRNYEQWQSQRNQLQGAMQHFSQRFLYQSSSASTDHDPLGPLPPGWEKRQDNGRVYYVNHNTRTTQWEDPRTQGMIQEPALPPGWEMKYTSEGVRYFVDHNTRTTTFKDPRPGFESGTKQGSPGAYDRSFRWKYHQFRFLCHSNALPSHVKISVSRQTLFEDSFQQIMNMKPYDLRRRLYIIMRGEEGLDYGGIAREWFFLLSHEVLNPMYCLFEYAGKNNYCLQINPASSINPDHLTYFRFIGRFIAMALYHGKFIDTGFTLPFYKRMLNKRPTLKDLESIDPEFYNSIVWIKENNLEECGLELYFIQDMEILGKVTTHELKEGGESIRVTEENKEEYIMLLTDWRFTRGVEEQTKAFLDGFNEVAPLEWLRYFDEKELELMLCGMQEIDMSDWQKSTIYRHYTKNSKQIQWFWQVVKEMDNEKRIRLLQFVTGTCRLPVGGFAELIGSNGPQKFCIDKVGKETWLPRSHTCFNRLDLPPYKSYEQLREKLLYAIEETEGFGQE
Protocol: Given the similarities between WWP1 and WWP2 HECT domains, we speculated that the relatively low sensitivity of DSF may not be able to detect weak WWP2-I3C interactions and therefore opted to investigate further using STD NMR. STD NMR is a versatile ligand-based NMR approach, relying on selective saturation of the protein. This saturation is transferred to the ligand when and if the ligand binds, causing a reduction of the signal intensities. The STD intensities are calculated as the difference of the reference spectra (where selective saturation is off) minus the irradiated spectra, and they are proportional to the vicinity of the protein surface. […]
An Amicon centrifuge filter unit with a 10 kDa MW cutoff was used to exchange the protein in 25 mM d19-2,2-bis(hydroxymethyl)-2,2′,2″-nitrilotriethanol, 100 mM NaCl and 1.0 mM DTT buffer pH* 8.9 (uncorrected for the deuterium isotope effect on the pH glass electrode) in D2O. […] All the NMR experiments were performed on a Bruker Avance 800.23 MHz at 278 K. Binding epitope mappings were obtained by determining the initial slopes (STD0) calculated by performing a least-squares fitting of the following monoexponential curve: [drawing 1] where STD(tsat) is the STD intensity for a saturation time, tsat, STDmax is the maximum STD intensity and ksat is the rate constant for saturation transfer. […]

SMILES: OCc1c[nH]c2ccccc12 [Compound I3C, Indole-3-carbinol, reference compound]
- pKd [1]: 6.35
- STD intensities, WWP2-I3C complex (in words, compared with WWP1) [2]: much lower
